According to patent US12084442B2, “Naphthyridinone derivatives for the treatment of a disease or disorder” (Novartis AG, priority 2021, dated 2024):

Assays:
GIRK1/4 = GIRK1/4 (Homo sapiens (Human), UniProt P48544+P48549); test: GIRK1/4 activity assay (Quattro/IonWorks population patch clamp, inward potassium current); assay type: cell-based; conditions: GIRK1/4 HEK293 stable cells; current inhibition normalized to DMSO-only control
Description: The GIRK1/4 activity of a compound according to the present invention was assessed by the following in vitro method.
• a. External buffer: 10 mM NaCl, 50 mM Na Gluconate, 80 mM K Gluconate, 1.8 mM CaCl2, 1 mM MgCl2, 10 mM HEPES, 10 mM Glucose, pH 7.4; osmolarity 300-310 Osm/L. • b. Internal buffer: 30 mM KCl, 100 mM K Gluconate, 1 mM MgCl2, 10 mM HEPES, 1 mM EGTA, 10 mM NaCl, pH 7.2; osmolarity 284-292 Osm/L. Compounds: • c. Prepare seven-fold compound dilution series (10 mM to 20 uM) in 100% DMSO, in 384-well polypropylene plates. • d. Propafenone (Sigma Aldrich, catalog number P4670) was used as a positive control and DMSO for neutral control • e. Resuspend 1 μl of compounds in DMSO into 66.7 μl external buffer in 384-well polypropylene plate and load into Plate 1 section of Molecular Devices Quattro® Quattro Setup: • f. Load 384-well Population Patch Plate (Molecular Devices #9000-0902) into Quattro • g. Fill Quattro F-soak trough with 20% DMSO and 50% EtOH • h. Fill Quattro buffer trough with external buffer • i. Attach internal buffer flask to Quattro internal buffer tubing • j. Attach PBS (Phosphate Buffered Saline, minus Ca^++ and Mg^++, pH7.4) bottle to F-head & E-head wash on Quattro Antibiotic: • k. Resuspend 5.1-5.8 mg amphotericin B (Sigma Aldrich, catalog number A2411) in 175 μl DMSO • l. Add the resulting solution to 50 mL internal buffer and attach to antibiotic tubing port on Quattro Cells: • m. Use GIRK1/4 HEK293 stable cells (obtained from ChanTest, 14656 Neo Parkway, Cleveland, Ohio 44128) grown to ˜80% confluency in the following cell culture medium: DMEM containing 10% (v/v) Fetal Bovine Serum, Penicillin/Streptomycin (at “IX” concentration from a 100× stock), 0.5 mg/mL G418 and 0.1 mg/mL Zeocin. • n. Detach cells using Detachin (Genlantis, 11011 Torreyana, San Diego, CA 92121), washed with PBS (minus Ca^++ and Mg^++) and resuspend in external buffer (5 mL final volume at 2.0-2.1×10^6 cells/mL) • o. Load into cell trough of Quattro Assay Protocol:
Quattro was controlled using IonWorks v2 software to perform the following steps: • p. Added 3.5 μl cells plus 3.5 μl external buffer to wells of Quattro Patch Plate® • q. Circulated amphotericin B and internal buffer onto cells • r. Applied the following voltage protocol: Pulse 1: 15 mV for 300 milliseconds (ms), followed by Pulse 2: −120 mV for 400 ms, then Pulse 3: −15 mV for 400 ms, and finally Pulse 4: −120 mV to 40 mV over 500 ms (this is a voltage ramp). • s. Measured magnitude of inward potassium current at time point between 1200-1220 ms from start of Pulse 1 (i.e., during the voltage ramp phase). • t. Added 3.5 μl of diluted compounds (or DMSO) to wells and repeated […] (final compound concentrations are 50 uM to 0.1 uM, and each concentration was tested in quadruplicate—i.e., in 4 separate wells). • u. The difference between current magnitude pre vs. post-compound gave a measure of GIRK1/4 inhibition. Data Analysis:
IC50 values were calculated by plotting the percentage of current inhibition (normalized to the DMSO-only control) as a function of compound concentration using standard data analysis software.

[1] = Pharmacokinetic properties in rats (IV and PO, whole blood LC-MS/MS); assay type: in vivo, Spargue Dawley/CD, male; conditions: for Rat AUC0-24 h 3 mg/kg: 3 mg/kg PO, suspension; for Rat AUC0-24 h 3 mg/kg / clearance: whole blood; for clearance: male, Sprague Dawley/CD, rat, IV dosing (0.3-1 mg/kg), CL = Dose/AUCinf; for Rat F: oral bioavailability, PO 3 mg/kg vs IV
Description: The pharmacokinetic properties of the compounds in rats were assessed by the following in vivo studies as described below.
At least four days before first drug administration, the rats (250-350 g) were anesthetized and, under aseptic conditions, catheters were surgically implanted into the left and right jugular veins (one for blood collection and the other one for intravenous injection). The catheters were exteriorized and fixed at the neck. For analgesic treatment, animals received analgesics before surgery and subsequently twice at appropriate times after surgery. The freely-moving animals equipped with catheters are kept individually in Macrolon cages, with free access to food and water throughout the experiment. After a recovery phase of at least 4 days, a single test compound was administered intravenously or orally, based upon the individual body weights.
The test articles were administered as solution in NMP:PEG 200 (10:90 v/v). Test articles where no solution can be obtained were rejected and not used in discrete or cassette dosing.
The test article were administered as suspension in MC:Tween 80:water (0.5:0.1:99.4 w/v/v).
The test article was administered as solution and as a bolus injection or as short I.V. infusion (30 seconds) via the left jugular vein catheter to conscious rats. The dose volume was 0.5 mL/kg body weight.
The test article was administered as a solution or suspension into the esophagus via a gavage tube to conscious rats. The dose volume was 5 mL/kg body weight. The exact start time of dosing and exact dose volume was noted.
Blood samples (20 μL) were collected from the right jugular vein catheter of cannulated animals (if JV catheter becomes non patent during the PK experiment (i.e., after dosing), blood can exceptionally be collected by tail vein puncture but it must be clearly specified into the in-life observations and data study rep) in tubes containing 10% of blood of 2% W/V K2 EDTA (2.0 mg/mL) at the different time intervals. Blood was collected following IV dosing at 0.083, 0.25, 0.5, 1, 2, 4, 7 and 24 h post dose. Blood was collected following PO dosing: 0.25, 0.5, 1, 2, 4, 7 and 24 h post dose.
The concentrations of compounds in whole blood were quantified using a liquid chromatography/mass spectrometry (LC-MS/MS) assay. 20 μL of each blood sample were precipitated with 100 μL of acetonitrile containing generic internal standards (carbamazepine/telmisartan/verapamil; c=50 ng/mL). The samples were vortexed thoroughly then centrifuged (5 min, 4° C.). The supernatant (80 μL) was transferred to a clean 96-well plate and mixed with 80 μL of water.
The samples were injected (1 to 20 μL) onto suitable analytical columns, using various isocratic methods and flow rates. Mobile phases typically consisting of 0.1% formic acid in water (solvent A) and 0.1% formic acid in acetonitrile (solvent B) with additional modifiers, if needed. Compounds and the internal standards were eluted at various retention times. The HPLC systems were interfaced to mass spectrometers. MS/MS analyses were carried out using electrospray ionization (ESI), typically in the positive ionization mode. Compounds and the internal standards were monitored using multiple reaction monitoring (MRM).
The standard curves employed for sample quantitation ranged over several log units. The lower limit of quantitation (LLOQ) in blood was determined and used as cutoff for the analytical sensitivity. Known amounts of the compounds were spiked into blood to create quality control samples with six known concentrations in singlets. The accuracy of the in vivo blood sample concentration determination was considered acceptable when the intra-assay accuracies obtained for the quality control samples were within 70% to 130% of the expected concentrations. Subsequently, from the time concentration data, pharmacokinetic parameters were calculated by non-compartmental regression analyses using an in house fitting program. […]

GIRK1/4, sequence (P48549 whole entry): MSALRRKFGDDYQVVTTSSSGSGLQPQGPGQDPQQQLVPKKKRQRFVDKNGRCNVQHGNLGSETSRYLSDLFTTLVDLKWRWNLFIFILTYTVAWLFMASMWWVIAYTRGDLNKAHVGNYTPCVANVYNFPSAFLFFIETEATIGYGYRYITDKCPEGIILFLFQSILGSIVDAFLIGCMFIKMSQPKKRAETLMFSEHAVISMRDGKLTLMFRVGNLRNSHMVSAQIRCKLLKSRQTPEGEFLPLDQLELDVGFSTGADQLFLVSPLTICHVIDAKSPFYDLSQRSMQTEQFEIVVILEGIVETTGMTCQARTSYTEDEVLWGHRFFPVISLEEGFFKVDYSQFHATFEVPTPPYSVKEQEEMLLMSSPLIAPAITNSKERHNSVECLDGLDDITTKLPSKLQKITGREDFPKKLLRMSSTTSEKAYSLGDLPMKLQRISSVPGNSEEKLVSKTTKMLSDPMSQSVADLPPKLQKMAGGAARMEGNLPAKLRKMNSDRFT
GIRK1/4, sequence (P48544 whole entry): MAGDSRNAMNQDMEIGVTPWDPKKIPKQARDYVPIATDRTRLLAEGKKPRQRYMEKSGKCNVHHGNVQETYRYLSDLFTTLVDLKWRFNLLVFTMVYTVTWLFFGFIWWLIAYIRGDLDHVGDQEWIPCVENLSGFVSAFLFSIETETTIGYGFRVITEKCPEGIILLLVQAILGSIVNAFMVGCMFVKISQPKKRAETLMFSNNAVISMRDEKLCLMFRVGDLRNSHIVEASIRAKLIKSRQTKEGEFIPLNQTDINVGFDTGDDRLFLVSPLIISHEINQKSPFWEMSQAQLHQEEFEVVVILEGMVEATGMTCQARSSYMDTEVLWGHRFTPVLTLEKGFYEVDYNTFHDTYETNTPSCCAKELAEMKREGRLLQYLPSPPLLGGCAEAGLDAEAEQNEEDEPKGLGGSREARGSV

IC50 (GIRK1/4) [nM]	Rat AUC0-24 h 3 mg/kg [1] [nMh]	clearance [1] [mL/min/kg]	Rat F [1] [%]	Structure (SMILES)
170	3200	10.4	34	Cc1cc(=O)c2c(CC(C)S(C)(=O)=O)ncc(Cl)c2n1-c1c(Cl)cc(OCCO)cc1Cl (single isomer, unassigned) [Example 21, 8-Chloro-1-(2,6-dichloro-4-(2-hydroxyethoxy)phenyl)-2-methyl-5-(2-(methylsulfonyl)propyl)-1,6-naphthyridin-4(1H)-one]
330				CNC(=O)CCOc1ncc(Cl)c2c1c(=O)cc(C)n2-c1c(Cl)cc(OC[C@H](C)O)cc1Cl [Example 10, (S)-3-((8-Chloro-1-(2,6-dichloro-4-(2-hydroxypropoxy)phenyl)-2-methyl-4-oxo-1,4-dihydro-1,6-naphthyridin-5-yl)oxy)-N-methylpropanamide]
160				CNC(=O)C(C)(C)COc1ncc(Cl)c2c1c(=O)cc(C)n2-c1c(Cl)cc(OCCO)cc1Cl [Example 11, 3-((8-Chloro-1-(2,6-dichloro-4-(2-hydroxyethoxy)phenyl)-2-methyl-4-oxo-1,4-dihydro-1,6-naphthyridin-5-yl)oxy)-N,2,2-trimethylpropanamide]
200				CNC(=O)[C@H](O)COc1ncc(Cl)c2c1c(=O)cc(C)n2-c1c(Cl)cc(OCCO)cc1Cl [Example 12, (R)-3-((8-Chloro-1-(2,6-dichloro-4-(2-hydroxyethoxy)phenyl)-2-methyl-4-oxo-1,4-dihydro-1,6-naphthyridin-5-yl)oxy)-2-hydroxy-N-methylpropanamide]
170				CNC(=O)[C@@H](O)COc1ncc(Cl)c2c1c(=O)cc(C)n2-c1c(Cl)cc(OCC(C)(C)O)cc1Cl [Example 14, (S)-3-((8-chloro-1-(2,6-dichloro-4-(2-hydroxy-2-methylpropoxy)phenyl)-2-methyl-4-oxo-1,4-dihydro-1,6-naphthyridin-5-yl)oxy)-2-hydroxy-N-methylpropanamide]
30				CNC(=O)C(F)(F)COc1ncc(Cl)c2c1c(=O)cc(C)n2-c1c(Cl)cc(OCCO)cc1Cl [Example 16, 3-((8-Chloro-1-(2,6-dichloro-4-(2-hydroxyethoxy)phenyl)-2-methyl-4-oxo-1,4-dihydro-1,6-naphthyridin-5-yl)oxy)-2,2-difluoro-N-methylpropanamide]
	1702	38.9	65	Cc1cc(=O)c2c(OCCC(N)=O)ncc(Cl)c2n1-c1c(Cl)cc(OCCO)cc1Cl [Example 18]

The remaining lines, values behind:

Structure (SMILES)	IC50 (GIRK1/4) [nM]	Rat AUC0-24 h 3 mg/kg [1] [nMh]	clearance [1] [mL/min/kg]	Rat F [1] [%]
Cc1cc(=O)c2c(OCC(=O)NCCO)ncc(Cl)c2n1-c1c(Cl)cc(OCCO)cc1Cl [Example 2, 2-((8-Chloro-1-(2,6-dichloro-4-(2-hydroxyethoxy)phenyl)-2-methyl-4-oxo-1,4-dihydro-1,6-naphthyridin-5-yl)oxy)-N-(2-hydroxyethyl)acetamide]	220	1288	23	29
CNC(=O)CCOc1ncc(Cl)c2c1c(=O)cc(C)n2-c1c(Cl)cc(OCC(C)(C)O)cc1Cl [Example 3, 3-((8-Chloro-1-(2,6-dichloro-4-(2-hydroxy-2-methylpropoxy)phenyl)-2-methyl-4-oxo-1,4-dihydro-1,6-naphthyridin-5-yl)oxy)-N-methylpropanamide]	220	7738	5.7	47
CNC(=O)COc1ncc(Cl)c2c1c(=O)cc(C)n2-c1c(Cl)cc(OCC(C)(C)O)cc1Cl [Example 4, 2-((8-Chloro-1-(2,6-dichloro-4-(2-hydroxy-2-methylpropoxy)phenyl)-2-methyl-4-oxo-1,4-dihydro-1,6-naphthyridin-5-yl)oxy)-N-methylacetamide]	160	3674	5.5	22
CNC(=O)COc1ncc(Cl)c2c1c(=O)cc(C)n2-c1c(Cl)cc(OCCO)cc1Cl [Example 5, 2-((8-Chloro-1-(2,6-dichloro-4-(2-hydroxyethoxy)phenyl)-2-methyl-4-oxo-1,4-dihydro-1,6-naphthyridin-5-yl)oxy)-N-methylacetamide]	60	2336	14.6	33
CNC(=O)CCOc1ncc(Cl)c2c1c(=O)cc(C)n2-c1c(Cl)cc(OC[C@@H](C)O)cc1Cl [Example 6, (R)-3-((8-Chloro-1-(2,6-dichloro-4-(2-hydroxypropoxy)phenyl)-2-methyl-4-oxo-1,4-dihydro-1,6-naphthyridin-5-yl)oxy)-N-methylpropanamide]	130	3570	21.6	82
CNC(=O)[C@@H](C)COc1ncc(Cl)c2c1c(=O)cc(C)n2-c1c(Cl)cc(OCCO)cc1Cl [Example 8, (S)-3-((8-Chloro-1-(2,6-dichloro-4-(2-hydroxyethoxy)phenyl)-2-methyl-4-oxo-1,4-dihydro-1,6-naphthyridin-5-yl)oxy)-N,2-dimethylpropanamide]	70			
